# Results: patent US11510887B2, “Sobetirome in the treatment of myelination diseases” (Oregon Health & Science University, priority 2013, dated 2022)
# Assays:
# [1] = test system: corpus callosum of mice following injection of lysolecithin; experiment: Lysolecithin toxin model of focal demyelination; format: in vivo, C57BL/6 mice; conditions: 8 days after lysolecithin injection, daily i.p. from 7 days before to 8 days after, sobetirome 1.0 mg/kg/day, T3 0.4 mg/kg/day
# Procedure: FIG. 1: Sobetirome reduced demyelination in the corpus callosum of mice following injection of lysolecithin. Top, BlackGold® stain is specific for myelin fibers and cresyl violet is used as a counterstain. Mice received stereotactic injections of 2 μL of PBS or 2% lysolecithin in the corpus callosum. A white arrow indicates the path of the injection needle and a black box indicates the lesion site. An enlarged image of the boxed lesion site is shown to the right. Bottom, brain sections of 30 μm were stained with FluoroMyelin™, anti-PDGFR-α and DAPI. Hypothyroidism was induced with drinking water treatment, and both hypothyroid and control mice received vehicle injections. T3 (0.4 mg/kg) and sobetirome (1 mg/kg) were administered by daily i.p. injections starting 7 days before stereotactic injection of lysolecithin. Mice were euthanized 8 days after stereotactic injection of 2% lysolecithin, and brains were harvested and processed for histological analysis.
# Lysolecithin was injected into the corpus callosum using stereotactic equipment at the x, y, z coordinates of +1.000, +1.050, and +2.000 mm from the Bregma point using a beveled needle with the bevel facing caudally. To minimize trauma, 2 μL of 2% lysolecithin or 2 μL of PBS was injected over four minutes using a micropump injector and the beveled needle was held in place for five minutes before withdrawal. […]
# [2] = test system: C57BL/6 mice with EAE; experiment: EAE induced with MOG 35-55 peptide; format: in vivo, C57BL/6 female mice
# Procedure: FIG. 2: Sobetirome reduces demyelination in mice with EAE. […] EAE was induced in female mice with MOG 35-55 peptide. On day 17 post immunization, mice were randomized based on their EAE scores and daily i.p. injections of sobetirome (n=8) or vehicle (n=8) were started. Mice were euthanized after 11 days of treatment and spinal cords were prepared for histological evaluation. The mean percentage of ventrolateral demyelination for vehicle treated mice was 17.25 (SD+/−7.09) and 9.11 (SD+/−4.96) for sobetirome (p<0.01).
# This study was performed to assess the effects of sobetirome on EAE in C57BL/6 female mice immunized with MOG 35-55 peptide. Seventeen days after immunization, at peak of clinical disease, mice were randomized to receive daily injections of sobetirome (1 mg/kg/day) or vehicle. After 11 days of treatment, mice were euthanized and processed for histologic examination. […] This is because the degree of inflammation within the spinal cords was similar between the two groups (Table 1) and much of the short term paralysis that occurs in EAE is secondary to effects of inflammation on neural function. […] Much of the effect appears related to protection of axons and myelin from damage (FIG. 3). Thus, sobetirome has a neuroprotective effect that decreases axonal damage and demyelination.
SMILES,areas of demyelination compared with vehicle [1],"% CD4 Staining (T cell marker) ([2]; immunofluorescent staining of lumbosacral spinal cord sections, vehicle 1.01) [%]","% CD11b Staining (macrophage marker) ([2]; immunofluorescent staining of lumbosacral spinal cord sections, vehicle 3.89) [%]","EAE clinical scores versus vehicle ([2]; sobetirome 1 mg/kg/day, 11 days of treatment from day 17 after immunization)","demyelination in lateral columns of the lumbosacral cord versus vehicle ([2]; sobetirome 1 mg/kg/day, 11 days of treatment, p<0.01)","mean percentage of ventrolateral demyelination (area of damage in ventrolateral white matter) ([2]; spinal cord, after 11 days of daily i.p. treatment started day 17 post immunization, n=8, vehicle 17.25 (SD+/−7.09), p<0.01)"
Cc1cc(OCC(=O)O)cc(C)c1Cc1ccc(O)c(C(C)C)c1 [Sobetirome],much smaller areas of demyelination,1.24,5.76,did not differ significantly,significantly less demyelination,9.11 (SD+/−4.96) %
"N[C@@H](Cc1cc(I)c(Oc2ccc(O)c(I)c2)c(I)c1)C(=O)O [T3, triiodothyronine]",much smaller areas of demyelination,,,,,
